Test results from patent US20170049717A1, “DRUG FOR TREATMENT OF TINNITUS PATIENTS” (KYORIN PHARMACEUTICAL CO., LTD., priority 2014, published 2017).

Assays:
[1] = tested on: patients with tinnitus associated with sudden hearing loss; assay: 24-week, placebo controlled, randomized, double-blind comparative trial; TRSw score; format: in vivo, human; settings: for Change in TRSw score, Neramexane: least mean squares (MMRM)
Procedure: Film coated tablets comprising 12.5 mg neramexane mesylate were produced by the method disclosed in International Patent Publication No. WO2009/033649.
The efficacy of neramexane mesylate on patients with tinnitus associated with sudden hearing loss was evaluated in a 24-week, placebo controlled, randomized, double-blind comparative trial.
The film coated tablets comprising 12.5 mg neramexane mesylate or placebo tablets were administered for 24 weeks to patients having tinnitus. The dosage was started from 12.5 mg/day, and gradually increasing the dose to 50 mg/day over 4 weeks, and maintaining the same dose thereafter.
The therapeutic effect of neramexane mesylate for the patients was evaluated using the TRSw score. Also, the state of anxiety or depression of the patients was evaluated using the HADS score. Statistical analysis was performed using a mixed-effect model repeated measure (MMRM) taking into consideration the covariance structure of error for the patient, with the change in TRSw score from before administration of neramexane mesylate tablets or placebo tablets (0 weeks) to each evaluation time point as the response variable, and with the drug-administered group, evaluation time point, interaction between drug-administered group and evaluation time point, 0-week TRSw score, gender and body weight as […]. The numerical values in the table represent least mean squares for the change in TRSw score at 16 weeks after administration and 24 weeks after administration. A change in score of less than 0 indicates a higher therapeutic effect.

[2] = molecular target: α9/α10 nicotinic acetylcholine receptors (Rattus norvegicus, UniProt P43144+Q9JLB5); settings: Plazas, et al., Eur J Pharmacol., 2007; cited from earlier work
[3] = molecular target: T1, 5-HT3 receptors (Homo sapiens, UniProt P46098); settings: cited from earlier work
T1 sequence (P46098 24-478): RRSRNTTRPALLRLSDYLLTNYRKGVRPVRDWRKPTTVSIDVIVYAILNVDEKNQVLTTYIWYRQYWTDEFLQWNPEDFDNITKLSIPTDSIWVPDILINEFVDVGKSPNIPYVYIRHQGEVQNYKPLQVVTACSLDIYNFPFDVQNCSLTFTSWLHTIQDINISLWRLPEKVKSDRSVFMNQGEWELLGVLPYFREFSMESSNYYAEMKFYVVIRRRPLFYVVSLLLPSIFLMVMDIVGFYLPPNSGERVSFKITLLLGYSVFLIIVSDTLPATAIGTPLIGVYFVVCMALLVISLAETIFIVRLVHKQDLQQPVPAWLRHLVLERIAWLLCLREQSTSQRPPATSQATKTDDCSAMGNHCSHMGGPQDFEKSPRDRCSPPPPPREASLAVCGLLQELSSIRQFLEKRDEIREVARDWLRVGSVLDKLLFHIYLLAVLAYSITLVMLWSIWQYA

[4] = sudden hearing loss, together with HADS (anxiety) of >10
[5] = sudden hearing loss, together with HADS (depression) of >10
[6] = sudden hearing loss, together with morbidity period of 48 months or longer
[7] = sudden hearing loss, together with suffering period of less than 6 months

Chain of α9/α10 nicotinic acetylcholine receptors (P43144 26-479): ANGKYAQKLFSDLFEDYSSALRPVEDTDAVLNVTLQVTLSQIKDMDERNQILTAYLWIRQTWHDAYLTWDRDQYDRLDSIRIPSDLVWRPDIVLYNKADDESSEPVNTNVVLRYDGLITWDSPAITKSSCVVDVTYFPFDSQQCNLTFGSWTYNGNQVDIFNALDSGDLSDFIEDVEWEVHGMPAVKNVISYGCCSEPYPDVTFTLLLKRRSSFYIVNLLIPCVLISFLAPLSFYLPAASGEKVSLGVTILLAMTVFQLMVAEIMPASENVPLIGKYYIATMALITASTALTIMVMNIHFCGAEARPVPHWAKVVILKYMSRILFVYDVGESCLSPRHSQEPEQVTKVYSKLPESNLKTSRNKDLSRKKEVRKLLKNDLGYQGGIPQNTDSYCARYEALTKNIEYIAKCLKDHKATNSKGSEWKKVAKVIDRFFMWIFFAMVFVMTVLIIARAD
Chain of α9/α10 nicotinic acetylcholine receptors (Q9JLB5 25-447): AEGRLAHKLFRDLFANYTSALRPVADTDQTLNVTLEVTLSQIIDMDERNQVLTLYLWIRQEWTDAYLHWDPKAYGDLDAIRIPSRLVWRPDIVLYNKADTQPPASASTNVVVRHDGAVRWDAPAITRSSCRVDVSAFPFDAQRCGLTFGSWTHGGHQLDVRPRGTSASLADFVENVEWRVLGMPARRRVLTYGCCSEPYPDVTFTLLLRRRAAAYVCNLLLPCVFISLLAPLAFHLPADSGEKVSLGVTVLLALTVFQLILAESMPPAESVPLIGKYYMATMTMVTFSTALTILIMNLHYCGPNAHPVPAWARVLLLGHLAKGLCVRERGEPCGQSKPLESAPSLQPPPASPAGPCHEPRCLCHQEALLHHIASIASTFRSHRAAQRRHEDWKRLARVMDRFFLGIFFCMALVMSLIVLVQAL

Q: Which results are given for CC1(C)CC(C)(C)CC(C)(N)C1 [Neramexane, 1-amino-1,3,3,5,5-pentamethylcyclohexane]?
A: Change in TRSw score, Neramexane − placebo ([1]; Tinnitus associated with sudden hearing loss): −1.8; therapeutic effect ([1]; group with a depression value of greater than 10 according to HADS): unexpectedly excellent therapeutic effect; therapeutic effect ([1]; group with a morbidity period of 48 months or longer): unexpectedly excellent therapeutic effect; therapeutic effect ([1]; group with a suffering period of shorter than 6 months): unexpectedly excellent therapeutic effect; therapeutic effect ([1]; group with an anxiety value of greater than 10 according to HADS): unexpectedly excellent therapeutic effect; Change in TRSw score, Neramexane ([1]; change from 0 weeks, up to 50 mg/day, Tinnitus associated with sudden hearing loss): −2.3; Change in TRSw score, Neramexane [1, 4]: −2.4; Change in TRSw score, Neramexane [1, 5]: −3.1; Change in TRSw score, Neramexane [1, 6]: −4.0; Change in TRSw score, Neramexane [1, 7]: −3.7; therapeutic effect compared to placebo ([1]; patients affected by tinnitus associated with sudden hearing loss): clear therapeutic effect; Change in TRSw score, Neramexane − placebo [1, 4]: −3.7; Change in TRSw score, Neramexane − placebo [1, 5]: −3.7; Change in TRSw score, Neramexane − placebo [1, 6]: −4.2; Change in TRSw score, Neramexane − placebo [1, 7]: −3.8; inhibiting activity on α9/α10 nicotinic acetylcholine receptors [2]: exhibits inhibiting activity; inhibiting activity on 5-HT3 receptors [3]: exhibits inhibiting activity
